Test [1] deals with p-ERK in NCI-H441 cells (KRAS G12V mutation). The experiment in a line: Cell p-ERK assay (HTRF) in NCI-H441 cells. The following applies: Homo sapiens, NCI-H441, 3 h, NCI-H441 cells, 3 h compound incubation, HTRF p-ERK T202/Y204; read-out: H441 p-ERK IC50. It is filed as cell-based, human. How it is done:
AsPC-1 cells were purchased from ATCC, Cat. No. CRL-1682: NCI-H441 cells were purchased from ATCC, Cat. No. HTB-174: RPMI-1640 medium was purchased from Gibco, Cat. No. I1875-093: FBS was purchased from Gibco, Cat. No. 10099-141C: penicillin/streptomycin double-antibiotic solution (PS) was purchased from Gibco, Cat. No. 15140-122: trypsin (containing EDTA) was purchased from Gibco, Cat. No. 25200-072; DMSO was purchased from VWRAMRESCO, Cat. No. 0231-500ML; 96-well cell culture plates were purchased from Corning, Cat. No. 3599: white-bottomed, opaque 96-well plates were purchased from Cisbio, Cat. No. 66PL96025; Advance ERK phospho-T202/Y204 kit was purchased from Cisbio, Cat. No. 64AERPEH; cell counter was purchased from CHEMOMETEC, model: NC-200; microplate reader was purchased from PerkinElmer, model: EnVision.
AsPC-1, a human pancreatic cancer cell strain endogenously containing a KRAS^G12D mutation, was cultured in a complete medium containing RPMI-1640+10% FBS+1% PS. NCI-H441, a human non-small cell lung cancer cell strain endogenously containing a KRAS^G12V mutation, was cultured in a complete medium containing RPMI-1640+10% FBS+1% PS.
The cells were digested with trypsin (containing EDTA), collected in their corresponding complete media, and counted. The density of the cell suspensions was adjusted with their corresponding complete media, and 10000 AsPC-1 cells or 20000 NCI-H441 cells per well were seeded into a 96-well cell culture plate, with the volume of the medium in each well being 80 μL.
The cell culture plate was incubated in an incubator at 37° C. with 5% CO2 overnight. A series of 3.16-fold gradient dilutions of a 1000- compound stock solution were prepared with DMSO, and then diluted 200-fold with the complete medium described above to give 5′ compound stock solutions. On the day after cell seeding, 20 μL of the 5× compound stock solution was added to each cell culture well. As a result, the final concentration of the compound in the cell culture well became 1×, and the DMSO content in the well was 0.1%. In addition to the compound-treated wells described above, cell-containing DMSO control wells were also set. A complete medium containing 0.5% DMSO was added at 20 μL/well. After the mixture was well mixed, the culture plate was incubated in the incubator at 37° C. with 5% CO2 for another 3 h. The medium was then removed from the culture wells, and 50 μL of cell lysis buffer (from Advance ERK phospho-T202,Y204 kit) was added to each well. The mixture was well mixed and incubated for 30 min. Then, 16 μL of the mixture was transferred to a white-bottomed, opaque 96-well assay plate, and separately, 16 μL of cell lysis buffer was added to additional wells (serving as blank wells) in the assay plate. After the transfer was completed, 4 μL of p-ERK HTRF antibody mixture (from Advance ERK phospho-T202/Y204 kit) was added to each well of the assay plate, followed by a 4-hour incubation. The HTRF signal values (RLU) were then measured using a microplate reader, and the inhibition rate of the compound against p-ERK levels was calculated as follows: IR (%)=(RLUDMSO−RLUcompound)/(RLUDMSO−RLUblank)×100%, where RLUDMSO is the average HTRF signal value from the DMSO control well samples, RLUblank is the average HTRF signal value from the blank well samples, and RLUcompound is the HTRF signal value from the compound-treated well samples. Using an XLfit software, the IR (%) values were plotted against the logarithm of the compound concentrations, and the dose-response curves were fitted using the four-parameter method to calculate the IC50 values.

A further test deals with NCI-H441 cells. The experiment in a line: 3D cell proliferation assay (CellTiter Glo-3D), NCI-H441. It is filed as cell-based, human. The settings on record: medium with 2% FBS, read-out: H441 AP IC50. The source says: MIA PaCa-2 cells were purchased from ATCC, Cat. No. CRL-1420; AsPC-1 cells were purchased from ATCC, Cat. No. CRL-1682; NCI-H441 cells were purchased from ATCC, Cat. No. HTB-174: NCI-H1975 cells were purchased from ATCC. Cat. No. CRL-5908; DMEM medium was purchased from Gibco, Cat. No. 11995-065: RPMI-1040 medium was purchased from Gibco. Cat. No. H 18754093; FBS was purchased from Gibco, Cat. No. 10099-141C. penicillin, streptomycin double-antibiotic solution (PS) was purchased from Gibco, Cat. No. 15140-122; Horse serum was purchased from Gibco. Cat. No. 16050130: trypsin (containing EDTA) was purchased from Gibco, Cat. No. 25200-072; DMSO was purchased from VWRAMRESCO, Cat. No. 0231-500ML; 384-well cell culture plates were purchased from Corning, Cat. No. 3830; white-bottomed, opaque 384-well assay plates were purchased from Corning, Cat. No. 3570. CellTiter Glo-3D) kit was purchased from Promega. Cat. No. G9683; cell counter was purchased from CHEMOMETEC, model: NC-200: microplate reader was purchased from PerkinElmer, model: EnVision.
MIA PaCa-2, a human pancreatic cancer cell strain endogenously containing a KRAS^G12C mutation, was cultured in a complete medium containing DMEM+10% FBS+2.5% Horse serum+1% PS. AsPC-1, a human pancreatic cancer cell strain endogenously containing a […] mutation, was cultured in a complete medium containing RPMI-1640+10% FBS+1% PS. NCI-H441 cells, a human lung cancer cell strain endogenously containing a […] mutation, were cultured in a complete medium containing RPMI-1640+10% FBS+1% PS. NCI-H1975, a KRAS wild-type human lung cancer cell strain whose cell proliferation depends on KRAS activity, was cultured in a complete medium containing RPMI-1640+10% FBS+1% PS.
The cells were digested with trypsin (containing EDTA), collected in their respective low-serum complete media containing 2% FBS (for MIA Paca-2 cell culture: DMEM+2% FBS+0.5% Horse serum+1% PS), and counted. After the cell density was adjusted as required, 200 MIA PaCa-2 cells, 800 AsPC-1 cells, 800 NCI-H441 cells, or 400 NCI-H1975 cells per well were seeded into a 384-well cell culture plate, with the volume of the medium in each well being 45 μL. The cell culture plate was incubated in an incubator at 37° C. with 5% CO2, overnight. A series of 3.16-fold gradient dilutions of a 1000× compound stock solution were prepared with DMSO, and then diluted 100-fold with the complete medium containing 2% FBS described above to give 10- compound stock solutions. On the day after cell seeding, 5 μL of the 10- compound stock solution was added to each cell culture well. As a result, the final concentration of the compound in the cell culture well became 1×, and the DMSO content in the well was 0.1%. In addition to the compound-treated wells described above, cell-containing DMSO control wells (with 5 μL of the complete medium containing 1% DMSO added to each well) and cell-free medium control wells (containing 50 μL of the complete medium with 2% FBS) were also set. The culture plate was incubated in an incubator at 37° C. with 5% CO2 for another 5 days, and then 30 μL of CellTiter-Glo working solution was added to each well. The mixture was well mixed, incubated for 30 min, left to stand at room temperature for 30 min, and then transferred to a white-bottomed, opaque 384-well assay plate at 40 μL/well. The chemiluminescence values (RLU) were measured using a microplate reader, and the cell proliferation inhibition rate for each well was calculated: IR (%)=(RLUDMSO—RLUcompound)/(RLUDMSO−RLUblank)×100%, where RLUDMSO is the average RLU signal value from the DMSO control well samples, RLUblank is the average RLU signal value from the medium control well samples, and RLUcompound is the RLU signal value from the compound-treated well samples. […]

Setting [2] is: Homo sapiens, NCI-H441, 3D cell proliferation (CellTiter Glo-3D).
The mark [3] stands for this setting: 3D cell proliferation (CellTiter Glo-3D).

Read-outs that look alike come from different tables or passages of the source.

`CCn1c(-c2cc(N3CCN(C)CC3)cnc2[C@H](C)OC)c2c3cc(ccc31)-c1csc(n1)C[C@H](Nc1nnc3n1CC(C)CC3)C(=O)N1CCC[C@H](N1)C(=O)OCC(C)(C)C2` (atropisomer, axis not shown; (Ra)) [Compound Z431]: the IC50 in test [1] stood at 44.4 nM; with NCI-H441 cells (setting [2]) it was 101 nM.

For the molecule `CCn1c(-c2cc(C#CCN3CCCOCC3)cnc2[C@H](C)OC)c2c3cc(ccc31)-c1csc(n1)C[C@H](NC(=O)[C@H](C(C)C)N(C)[S@](C)(=O)=NC)C(=O)N1CCC[C@H](N1)C(=O)OCC(C)(C)C2` (single isomer, unassigned) [Compound Z912-1], the IC50 in test [1] worked out at 2.61 nM; with NCI-H441 cells (setting [2]) it was 5.13 nM.

As for `CCn1c(-c2cc(C#CCN3CCN(C(=O)CO)CC3)cnc2C(C)OC)c2c3cc(ccc31)-c1csc(n1)CC(Nc1nnc3cc(C)ccn13)C(=O)N1CCCC(N1)C(=O)OCC(C)(C)C2` [Compound Z982, (6^3S,4S,Z)-1^1-ethyl-1^2-(5-(3-(4-(2-hydroxyacetyl)piperazin-1-yl)prop-1-yn-1-yl)-2-((S)-1-methoxyethyl)pyridin-3-yl)-10,10-dimethyl-4-((7-methyl-[1,2,4]triazolo[4,3-a]pyridin-3-yl)amino)-6^1,6^2,6^3,6^4,6^5,6^6-hexahydro-1^1H-8-oxa-2(4,2)-thiazola-1(5,3)-indola-6(1,3)-pyridazinacycloundecaphane-5,7-dione], in the test with NCI-H441 cells (setting [3]), the concentration for half-maximal inhibition (IC50) stood at 2.57 nM.

For `CCn1c(-c2cc(C#CCN3CCCOCC3)cnc2[C@H](C)OC)c2c3cc(ccc31)-c1csc(n1)C[C@H](Nc1nnc3cc(I)ccn13)C(=O)N1CCC[C@H](N1)C(=O)OCC(C)(C)C2` (atropisomer, axis not shown; (Ra)) [Compound Z970, (6^3S,4S,Z)-1^2-(Ra)-(5-(3-(1,4-oxazepan-4-yl)prop-1-yn-1-yl)-2-((S)-1-methoxyethyl)pyridin-3-yl)-1^1-ethyl-4-((7-iodo-[1,2,4]triazolo[4,3-a]pyridin-3-yl)amino)-10,10-dimethyl-6^1,6^2,6^3,6^4,6^5,6^6-hexahydro-1^1H-8-oxa-2(4,2)-thiazola-1(5,3)-indola-6(1,3)-pyridazinacycloundecaphane-5,7-dione], the IC50 in the test on NCI-H441 cells (setting [2]) amounted to 7.2 nM.

On to `CCn1c(-c2cc(N3CCN(C)CC3)cnc2[C@H](C)OC)c2c3cc(ccc31)-c1csc(n1)C[C@H](N(C)C)C(=O)N1CCC[C@H](N1)C(=O)OCC(C)(C)C2` (atropisomer, axis not shown; (Ra)) [Compound Z458], for which, in the test with NCI-H441 cells (setting [2]), the IC50 was 168 nM.

On to `CCn1c(-c2cc(N3CCN(C)CC3)cnc2[C@H](C)OC)c2c3cc(ccc31)-c1csc(n1)C[C@H](Nc1ccon1)C(=O)N1CCC[C@H](N1)C(=O)OCC(C)(C)C2` (atropisomer, axis not shown) [Compound Z459], for which the IC50 in the test on NCI-H441 cells (setting [2]) is 31.4 nM.

`[2H]C([2H])([2H])O[C@@H](C)c1ncc(N2CCN3CCOC[C@@H]3C2)cc1-c1c2c3cc(ccc3n1CC)-c1csc(n1)C[C@H](NC(=O)[C@H]1[C@H](C)[C@@H]1C)C(=O)N1CCC[C@H](N1)C(=O)OCC(C)(C)C2` (atropisomer, axis not shown; (Sa)) [Compound Z74, (1r,2R,3S)—N-((6^3S,4S,Z)-1^1-ethyl-(Sa)-1^2-(5-((S)-hexahydropyrazino[2,1-c][1,4]oxazin-8(1H)-yl)-2-((S)-1-(methoxy-d3)ethyl)pyridin-3-yl)-10,10-dimethyl-5,7-dioxo-6^1,6^2,6^3,6^4,6^5,6^6-hexahydro-1^1H-8-oxa-2(4,2)-thiazola-1(5,3)-indola-6(1,3)-pyridazinacycloundecaphane-4-yl)-2,3-dimethylcyclopropane-1-carboxamide]: the IC50 with NCI-H441 cells (setting [2]) worked out at 965 nM.

`CNCCn1c(-c2cc(C#CCN3CCS(=O)(=O)CC3)cnc2[C@H](C)OC)c2c3cc(ccc31)-c1csc(n1)C[C@H](NC(=O)[C@H]1[C@H](C)[C@@H]1C)C(=O)N1CCC[C@H](N1)C(=O)OCC(C)(C)C2` (atropisomer, axis not shown; (Ra)) [Compound Z954, (1r,2R,3S)—N-((6^3S,4S,Z)-1^2-(5-(3-(1,1-dioxidodimorpholino)prop-1-yn-1-yl)-(Ra)-2-((S)-1-methoxyethyl)pyridin-3-yl)-10,10-dimethyl-1^1-(2-(methylamino)ethyl)-5,7-dioxo-6^1,6^2,6^3,6^4,6^5,6^6-hexahydro-1^1H-8-oxa-2-(4,2)-thiazola-1(5,3)-indola-6(1,3)-pyridazinacycloundecaphane-4-yl)-2,3-dimethylcyclopropane-1-carboxamide]: the IC50 in the test on NCI-H441 cells (setting [3]) stood at 2.33 nM.

These data come from patent US20260234165A1, “MACROCYCLIC COMPOUNDS, PREPARATION METHOD THEREFOR, AND USE THEREOF” (GENFLEET THERAPEUTICS (SHANGHAI) INC., priority 2004, published 2026).
